# Reference: US11382904B2, “Therapeutic drug for diseases related to endoplasmic reticulum cell death in corneal endothelium” (KYOTO PREFECTURAL PUBLIC UNIVERSITY CORPORATION, priority 2013, dated 2022)
# Entries after “also recorded” stand apart in the source; their conditions may differ.
# What was measured:
# iHCEC = test: Western blot of apoptosis associated proteins after staurosporine stimulation; assay type: cell-based, human; conditions: 15 minutes to 4 hours after staurosporine stimulation
# Method: Caspase 9, caspase 3 and poly(ADP-ribose) polymerase (PARP) were assessed by Western blot in iHCEC stimulated with a mitochondrial stress stimulant staurosporine (abcam, ab120056) in order to assess the involvement of mitochondrial failure in apoptosis.
# A stimulation was applied with staurosporine to induce a mitochondrial disorder to examine the chronological change.
# Western blot was performed in accordance with the descriptions in Example 2. The following antibodies were used in addition to those used in Example 2.
# [1] = system: corneal endothelial cells with Fuchs' endothelial corneal dystrophy (iFECD); assay type: cell-based, human
# Method: The human corneal endothelial cells (iHCEC) or corneal endothelial cells with Fuchs' endothelial corneal dystrophy (iFECD) prepared in the Preparation Examples were seeded on a culture dish coated with FNC Coating Mix and cultured for about 3 days until reaching sub-confluence under the condition of 5% CO2 at 37° C. Furthermore, TGFβ2, SB431542 and TG were added and the cells were incubated for 24 hours under the condition of 5% CO2 at 37° C. Cell morphology and apoptosis were then observed under a phase difference microscope.
# [2] = system: corneal endothelial cells with Fuchs' endothelial corneal dystrophy (iFECD); test: Annexin V positive apoptosis cells by flow cytometry, iFECD; assay type: cell-based, human; conditions: for TGFβ2-induced increase of annexin V positive apoptotic cells, effect of inhibitor: TGFβ2 plus inhibitor, 24 hours
# Method: The human corneal endothelial cells (iHCEC) or corneal endothelial cells with Fuchs' endothelial corneal dystrophy (iFECD) prepared in the Preparation Examples were seeded on a culture dish coated with FNC Coating Mix and culture for about 3 days until reaching sub-confluence under the condition of 5% CO2 at 37° C. Furthermore, TGFβ2 and SB431542 were added and the cells were incubated for 24 hours under the condition of 5% CO2 at 37° C. Cells were peeled off with ACCUMAX. Annexin V or PI positive cells were measured by using Annexin V and PI and a flow cytometer (FACS Aria II (BD Biosciences, Franklin Lakes, N.J.)) with MEBCYTO Apoptosis Kit (Annexin V-FITC Kit) 100 test (4700, MEDICAL & BIOLOGICAL LABORATORIES).
# The human corneal endothelial cells (iHCEC) or corneal endothelial cells with Fuchs' endothelial corneal dystrophy (iFECD) prepared in the Preparation Examples were seeded on a culture dish coated with FNC Coating Mix and culture for about 3 days until reaching sub-confluence under the condition of 5% CO2 at 37° C. Furthermore, TGFβ2, SB431542 and TGFβ signal inhibitor A-83-01 (Wako, Osaka; catalog No: 018-22521), ALK5 inhibitor (Wako catalog No: 012-23021; CAS No. 446859-33-2; 2-(3-(6-methylpyridine-2-yl)-1H-pyrazole-4-yl)-1,5-naphthyridine) were added and the cells were incubated for 24 hours under the condition of 5% CO2 at 37° C. The cells were peeled off with ACCUMAX. Annexin V or PI positive cells were measured by using annexin V and propidium iodide (PI) with a flow cytometer (FACS Aria II (BD Biosciences, Franklin Lakes, N.J.)).
# [3] = system: human corneal endothelial cells (iHCEC); test: Annexin V positive apoptosis cells by flow cytometry, iHCEC; assay type: cell-based; conditions: after TGFβ stimulation (11.1±0.6% before stimulation)
# Method: Further, it is known as the knowledge of the inventors that PERK phosphorylation and ATF6 cleavage were increased more in iFECD than in iHCEC by TGFβ. In order to investigate the involvement of TGFβ signaling in apoptosis, cells were treated with TGFβ and annexin V positive apoptosis cells were assessed by flow cytometry. […] Meanwhile, it is known that TGFβ increases annexin V positive cells after a stimulation in iFECD relative to the number prior to a TGFβ stimulation (as exemplary data, 19.4±1.4% prior to stimulation and 29.9±1.5% after stimulation, p<0.01). In addition thereto, it is shown that expression of the chaperone GRP78 is elevated. Further, it is shown that the expression of CHOP is elevated and apoptosis is induced by ER stress. […]
# The human corneal endothelial cells (iHCEC) or corneal endothelial cells with Fuchs' endothelial corneal dystrophy (iFECD) prepared in the Preparation Examples were seeded on a culture dish coated with FNC Coating Mix and culture for about 3 days until reaching sub-confluence under the condition of 5% CO2 at 37° C. […] Annexin V or PI positive cells were measured by using Annexin V and PI and a flow cytometer (FACS Aria II (BD Biosciences, Franklin Lakes, N.J.)) with MEBCYTO Apoptosis Kit (Annexin V-FITC Kit) 100 test (4700, MEDICAL & BIOLOGICAL LABORATORIES).
# iHCEC and iFECD = test: Western blot of ER stress markers after TGFβ2 stimulation; assay type: cell-based, human
# Method: Western blot: Electrophoresis was applied to a protein extracted and obtained in a RIPA buffer with 7.5% polyacrylamide. The isolated protein was transferred onto a PVDF membrane (PALL LIFE SCIENCE (catalog number: EH-2222)). A Tris buffered saline (10 mM Tris-HCl, pH 7.4; 100 mM NaCl) (TBS-T) comprising 0.1% (vol/vol) polyethylene sorbitan monolaurate (Nacalai Tesque, catalog number: 28353-85) complemented with 5% NON FAT DRY MILK (CELL SIGNALING, catalog number: 9999) and a blotted membrane were incubated for 1 hour for a blocking operation. The membrane was immersed in anti-GRP78 antibodies diluted 1000 fold with TBS-T complemented with 5% NON FAT DRY MILK and reacted for 1 hour at room temperature. After washing three times with TBS-T and incubating with a mouse-IgG antibody HRP complex (CELL SIGNALING (catalog number: 7074P2)) and washing, a band illuminated with an ECL-ADVAVCE Western Blotting Detection Kit (GE Healthcare Japan (catalog number: RPN2135V)) was detected.
# Cells were stimulated for 24 hours with 10 ng/ml TGFβ2 (R&D SYSTEMS). Further, cells stimulated for 24 hours with 10 μM of thapsigargin (TG; Alomone Laboratories Ltd., Jerusalem, Israel) were used as a positive control of ER stress.
# Cells were stimulated with 10 ng/ml TGFβ2 (R&D SYSTEMS). Further, cells stimulated with thapsigargin (TG; Alomone Laboratories Ltd., Jerusalem, Israel) were used as a positive control of ER stress.
# In the present Example, a Western blot was performed as in Example 2 to investigate the expression of the molecular chaperone GRP78 and CHOP involved with apoptosis due to an ER stress response in order to confirm that a stronger ER stress is elicited by TGF-β in Fuchs' endothelial corneal dystrophy. Further, expression of phosphorylated PERK and ATF6 involved in stress signaling on an endoplasmic reticulum membrane was also examined therewith. A stimulation was applied with 10 ng/ml of TGFβ2 (R&D SYSTEMS). The chronological change was also examined therewith.
# [4] = system: corneal endothelial cells with Fuchs' endothelial corneal dystrophy (iFECD); test: Aggresome measurement by flow cytometry (ProteoStat Aggresome Detection Kit); assay type: cell-based, human; conditions: TGFβ2 10 ng/ml, 24 hours
# Method: 1×10^5 human corneal endothelial cells (iHCEC) or corneal endothelial cells with Fuchs' endothelial corneal dystrophy (iFECD) were seeded onto a 6 well plate coated with an FNC Coating Mix and cultured for about 2 days until reaching sub-confluence under the condition of 5% CO2 at 37° C. Furthermore, TGFβ2 (10 ng/ml; R&D SYSTEMS) was added and the cells were incubated for 24 hours under the condition of 5% CO2 at 37° C. The cells were then peeled off with ACCUMAX™ (Funakoshi), and aggresomes were measured with a flow cytometer (FACS Aria II (BD Biosciences, Franklin Lakes, N.J.) by using a ProteoStat® Aggresome Detection Kit: (EZN-51035-K100, Enabling Discovery in Life Science®).
# [5] = 10 ng/ml TGFβ2, 3 and 6 hours, more significant in iFECD than iHCEC
molecule,measurement,setting,value
CN[C@@H]1C[C@H]2O[C@@](C)([C@@H]1OC)n1c3ccccc3c3c4c(c5c6ccccc6n2c5c31)C(=O)NC4 [staurosporine],"activation of caspase 9, caspase 3 and PARP",iHCEC,activate
"NC(=O)c1ccc(-c2nc(-c3ccc4c(c3)OCO4)c(-c3ccccn3)[nH]2)cc1 [SB431542, 4-[4-(1,3-benzodioxole-5-yl)-5-(2-pyridinyl)-1H-imidazole-2-yl]benzamide]","floating cells induced by TG (thapsigargin), effect of inhibitor","[1]; iFECD, TG stimulation, 24 hours",not cancelled
same,"floating cells (cell damage) induced by TGFβ2, effect of inhibitor","[1]; iFECD, TGFβ2 stimulation, 24 hours",cancelled
same,"TGFβ2-induced increase of annexin V positive apoptotic cells, effect of inhibitor",[2],cancelled; also recorded: suppresses apoptosis
TGFβ2: transforming growth factor-β2 (R&D SYSTEMS) used to stimulate cells at 10 ng/ml,cell damage / floating cells caused by the stimulant,[1],damaged
same,percentage of annexin V positive apoptosis cells after stimulation,[3],12.3±0.5%
same,expression of CHOP,"iHCEC and iFECD; 10 ng/ml TGFβ2, 3 and 6 hours",increases
same,expression of the chaperone GRP78,"iHCEC and iFECD; 10 ng/ml TGFβ2, 3 and 6 hours",increases
same,expression of ATF6,iHCEC and iFECD; [5],promotes expression
same,phosphorylation of PERK (ER stress sensor),iHCEC and iFECD; [5],promotes phosphorylation
same,expression of chaperone GRP78 and stress sensor IRE1,"iHCEC and iFECD; 10 ng/ml TGFβ2, iFECD and normal cells, level high especially in iFECD",induced
same,increase of aggresomes (fluorescence intensity),[4],1.11 fold
same,percentage of annexin V positive apoptosis cells after stimulation,"[2]; after TGFβ stimulation (19.4±1.4% prior to stimulation), p<0.01",29.9±1.5%
"C/C=C(/C)C(=O)O[C@H]1C(C)=C2[C@H]([C@@H]1OC(=O)CCCCCCC)[C@@](C)(OC(C)=O)C[C@H](OC(=O)CCC)[C@@]1(O)[C@H]2OC(=O)[C@@]1(C)O [TG, thapsigargin]",cell damage / floating cells caused by the stimulant,[1],large amount of floating cells
"Cc1cccc(-c2n[nH]cc2-c2ccc3ncccc3n2)n1 [ALK5 inhibitor, 2-(3-(6-methylpyridine-2-yl)-1H-pyrazole-4-yl)-1,5-naphthyridine]","TGFβ2-induced increase of annexin V positive apoptotic cells, effect of inhibitor",[2],suppress apoptotic cells
"Cc1cccc(-c2nn(C(=S)Nc3ccccc3)cc2-c2ccnc3ccccc23)n1 [A-83-01, 3-(6-methyl-2-pyridinyl)-N-phenyl-4-(4-quinolinyl)-1H-pyrazole-1-carbothioamide]","TGFβ2-induced increase of annexin V positive apoptotic cells, effect of inhibitor",[2],suppress apoptotic cells
